Legend:
recombinant human BKb2R = biological target: T1, recombinant human BKb2R (Homo sapiens, UniProt P30411); experiment: Bradykinin Radioligand Binding Assay (BKB2); conditions: manually calculated by Cheng-Prusoff equation; read-out: BKB2 Ki (μg/ml) (converted)
T1 construct: expressed in transfected cells; host or cells: CHO-K1
T1 sequence (P30411 1-391): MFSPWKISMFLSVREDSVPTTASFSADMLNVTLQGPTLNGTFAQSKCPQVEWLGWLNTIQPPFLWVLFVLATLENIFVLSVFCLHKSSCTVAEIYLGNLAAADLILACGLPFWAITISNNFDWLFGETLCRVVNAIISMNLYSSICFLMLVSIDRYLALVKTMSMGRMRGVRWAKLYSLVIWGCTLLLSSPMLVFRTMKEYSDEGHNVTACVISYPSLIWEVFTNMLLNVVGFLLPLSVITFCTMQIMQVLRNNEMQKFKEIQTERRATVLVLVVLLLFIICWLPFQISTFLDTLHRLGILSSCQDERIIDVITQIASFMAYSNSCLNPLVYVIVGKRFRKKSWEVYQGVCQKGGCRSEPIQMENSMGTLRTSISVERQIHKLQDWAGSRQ
Procedure: (§1) BKB1 binding assay, as described in Example 17, was used to test curcumin compound isolated from a Curcuma longa extract (Compound 11), as well as commercially available curcumin purchased from Sigma-Aldrich (C1386). Curcumin was tested at final concentrations ranging from 200 μM to 5 nM. Binding curves were plotted by non-linear regression fit (using GraphPad Prizm software). Ki values were computed using Cheng-Prusoff algorithm. In addition, inhibition of BKB2 receptor binding activity by curcumin was examined with methods similar to those described in Example 17 for the BKB1 receptor with some modifications. Bradykinin Radioligand Binding Assay (BKB2) was conducted using a standard assay under the following conditions: • 1. Composition of Assay Buffer: 24 mM TES, pH 6.8, 1 mM 1.10-Phenanthrioline, 0.3% BSA. • 2. Source of BKb2R: CHO-K1 cells expressing recombinant human BKb2R • 3. Ligand: [^3H]-Bradykinin 0.2 nM. • 4. Incubation time: 90 min RT. • 5. Reading: TopCount.
Commercial curcumin (Sigma, C1386) was tested at concentrations ranging from 200 μM to 5 nM. […] Ki was manually calculated by using Cheng-Prusoff equation.

BKB1 receptor = biological target: T2, BKB1 receptor (Homo sapiens, UniProt P46663); experiment: Bradykinin B1 (BKB1) radioligand binding assay
T2 construct: Membranes from human IMR-90 lung fibroblasts, stimulated with IL-1β; endogenous in cells; host or cells: human IMR-90 lung fibroblasts, IL-1β stimulated (membranes)
T2 sequence (P46663 1-353): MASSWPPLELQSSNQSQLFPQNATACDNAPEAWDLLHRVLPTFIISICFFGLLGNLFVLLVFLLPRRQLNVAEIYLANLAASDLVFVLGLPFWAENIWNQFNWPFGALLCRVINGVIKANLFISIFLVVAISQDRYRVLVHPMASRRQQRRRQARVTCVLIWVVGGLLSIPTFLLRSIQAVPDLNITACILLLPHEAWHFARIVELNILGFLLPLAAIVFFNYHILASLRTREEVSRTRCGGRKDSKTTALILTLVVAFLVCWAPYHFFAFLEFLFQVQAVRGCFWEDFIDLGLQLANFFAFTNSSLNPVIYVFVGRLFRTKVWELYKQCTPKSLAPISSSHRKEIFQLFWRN
Procedure: as §1, with “Membranes from human IMR-90 lung fibroblasts, stimulated with IL-1β in modified HEPES buffer (PH=7.4), were incubated with a test sample in the presence of 0.9 nM [^3H](Des-[…])-Kallidin for 60 minutes at room temperature. After incubation, membranes were filtered and washed five times with modified DPBS buffer (pH=7.4). Samples were scintillation counted to determine the amount of specifically bound to the BKB1 receptor containing membrane. […] BKB1 binding” for “BKB1 binding”, “some modifications. […] Composition of” for “some modifications. Bradykinin Radioligand Binding Assay (BKB2) was conducted using a standard assay under the following conditions: • 1. Composition of”

CD-1 mice = experiment: Nociceptive behavior model elicited by intraplantar injection of formalin; assay type: in vivo
Procedure: Mice (n=6 per group) were habituated under inverted Plexiglas observation chamber for 30 minutes to allow them to acclimatize to their surroundings. […] Mice were immediately transferred to their individual observational chamber. […] Mirrors positioned behind the chambers enabled observation of the right hind paw when it was obscured from direct view. […] These behavioral reactions observed for the first five minutes are due to direct action of the irritant on sensory nerve endings where is believed to be as a result of inflammation in the later phase. […] Mice were treated with curcumin (50, 100, 150 or 200 mg/kg) or ibuprofen (200 mg/kg) orally half an hour before intraplantar formalin injection.

COc1cc(/C=C/C(=O)CC(=O)/C=C/c2ccc(O)c(OC)c2)ccc1O [Curcumin]
Ki (recombinant human BKb2R): 157 µM
selectivity BKB1 vs BKB2 binding (BKB1 receptor): selective BKB1 antagonist
Ki (BKB1 receptor; Cheng-Prusoff, read-out: BKB1 Ki (μg/ml) (converted)): 5.9 µM
Pain Sensitivity 20-40 Minutes after Formalin Injection % ↓ vs. Vehicle (CD-1 mice; 50 mg/kg oral): 53.1%
Pain Sensitivity 20-40 Minutes after Formalin Injection % ↓ vs. Vehicle (CD-1 mice; 100 mg/kg oral): 52.5%
Pain Sensitivity 20-40 Minutes after Formalin Injection % ↓ vs. Vehicle (CD-1 mice; 150 mg/kg oral): 60.3%
Pain Sensitivity 20-40 Minutes after Formalin Injection % ↓ vs. Vehicle (CD-1 mice; 200 mg/kg oral): 74.6%

Reference: patent US20230190852A1, “COMPOSITIONS AND METHODS FOR JOINT HEALTH” (Unigen, Inc., priority 2013, published 2023)
